System: E2-induced (ER target) genes in MCF7
Assay: Gene expression analysis by RNA-sequencing in MCF7 with E2 stimulation
Assay type: cell-based, human
Details: 24 h
Method: MCF7 were cultured in hormone deprivation media (with 10% charcoal-stripped FBS) for at least 3 days before assay. Trypsinized cells were seeded in a 12-well plate, stimulated with 1 nM β-estradiol (E2), and treated with/without 1 μM compounds for 24 h. Total RNA was extracted using the TRIzol reagent according to the manufacturer’s protocol. RNA purity and quantification were evaluated using the NanoDrop 2000 spectrophotometer (Thermo Scientific, USA). RNA integrity was assessed using the Agilent 2100 Bioanalyzer (Agilent Technologies, Santa Clara, CA, USA). Then the libraries were constructed using TruSeq Stranded mRNA LT Sample Prep Kit (Illumina, San Diego, CA, USA) according to the manufacturer’s instructions. The transcriptome sequencing and analysis were conducted by OE Biotech Co., Ltd. (Shanghai, China). The libraries were sequenced on an Illumina HiSeq X Ten platform and 150 bp paired-end reads were generated. […] Raw data (raw reads) of FASTq format were firstly processed using Trimmomatic and the low-quality reads were removed to obtain the clean reads. […] The clean reads were mapped to the human genome (GRCh38) using HISAT2 [27]. FPKM [28] of each gene was calculated using Cufflinks, and the read counts of each gene were obtained by HTSeqcount. Differential expression analysis was performed using the DESeq (2012) R package.
MCF7 with hormone-deprived pre-treatment were administrated ER ligands or not present with 1 nM E2 stimulation for 24 h incubation in a 12-well plate. Total mRNA was isolated from treated cells and sequenced on an Illumina HiSeq X Ten platform. FPKM of each gene was calculated using Cufflinks and Differential expression genes analysis by using the DESeq (2012) R package. […] T47D EFM-19 and HCC1500 cells were grown in RPMI media supplemented with 10% charcoal-stripped FBS for 14 days and then treated with ER antagonist (1 μM) or DMSO in the presence E2 (1nM) stimulation for 24 h before RNA isolation and gene expression analysis as described in methods. […] The uteruses were harvested 24 h after the final doses and stained by toluidine blue. Endometrial height was assessed from the basement membrane to the luminal border (scale bar in green lines: 200 μm), Arrows indicate the uterine epithelium (e).

## CC/C(=C(\c1ccc(O)cc1)c1ccc(OCCN(C)C)cc1)c1ccccc1 [4-OH-tamoxifen]
MCF7, 1 nM E2 + 1 μM compound
  percentage of E2-induced genes suppressed, Relative to 1 nM E2 Down%: 59.1%
MCF7, 1 nM E2 + 1 μM compound, foldchange > twofold
  percentage of genes upregulated, Relative to 1 nM E2 Up%: 5.8%
MCF7, 1 nM E2 ± 1 μM compound
  ACTG2 expression: 2.33 FPKM
  ADCY1 expression: 19.17 FPKM
  AGR3 expression: 25.86 FPKM
  AMZ1 expression: 3.21 FPKM
  ANLN expression: 22.77 FPKM
  ARHGAP36 expression: 1.42 FPKM
  ASCL1 expression: 2.50 FPKM
  ASF1B expression: 33.57 FPKM
  ASMTL-2 expression: 3.33 FPKM
  ATAD2 expression: 29.15 FPKM
  ATRNL1 expression: 0.29 FPKM
  AURKB expression: 18.53 FPKM
  BIRC5 expression: 26.74 FPKM
  BLM expression: 3.14 FPKM
  BMPER expression: 0.18 FPKM
  BRCA1 expression: 3.58 FPKM
  BRCA2 expression: 2.51 FPKM
  BRIP1 expression: 22.65 FPKM
  BUB1B expression: 9.15 FPKM
  C1orf226 expression: 5.19 FPKM
  C5AR2 expression: 2.33 FPKM
  CA2 expression: 157.09 FPKM
  CA12 expression: 46.02 FPKM
  CALCR expression: 4.03 FPKM
  CAV1 expression: 5.56 FPKM
  CCN5 expression: 29.67 FPKM
  CCNA2 expression: 17.16 FPKM
  CCNE2 expression: 7.22 FPKM
  CD99-2 expression: 0.97 FPKM
  CDC6 expression: 6.08 FPKM
  CDC25A expression: 2.63 FPKM
  CDC45 expression: 5.79 FPKM
  CDCA3 expression: 6.21 FPKM
  CDCA4 expression: 15.28 FPKM
  CDCA5 expression: 13.04 FPKM
  CDCA7 expression: 2.77 FPKM
  CDH26 expression: 0.69 FPKM
  CDK1 expression: 15.34 FPKM
  CDT1 expression: 21.06 FPKM
  CENPI expression: 3.21 FPKM
  CENPU expression: 5.41 FPKM
  CHAF1B expression: 2.31 FPKM
  CHEK1 expression: 2.63 FPKM
  CKS1B expression: 49.15 FPKM
  CLSPN expression: 1.96 FPKM
  COL12A1 expression: 3.75 FPKM
  CXCL12 expression: 3.86 FPKM
  DDIAS expression: 4.48 FPKM
  DHRSX-2 expression: 1.54 FPKM
  DKK1 expression: 41.67 FPKM
  DNA2 expression: 3.39 FPKM
  DPYSL5 expression: 0.63 FPKM
  DSCC1 expression: 4.49 FPKM
  DTL expression: 2.21 FPKM
  E2F1 expression: 8.56 FPKM
  E2F2 expression: 1.96 FPKM
  E2F7 expression: 3.12 FPKM
  E2F8 expression: 4.23 FPKM
  ELOVL2 expression: 7.72 FPKM
  EME1 expression: 4.92 FPKM
  ERCC6L expression: 1.82 FPKM
  ESCO2 expression: 2.98 FPKM
  ESPL1 expression: 7.94 FPKM
  EXO1 expression: 3.27 FPKM
  FAM20A expression: 2.46 FPKM
  FAM111B expression: 4.32 FPKM
  FANCA expression: 10.70 FPKM
  FANCD2 expression: 6.23 FPKM
  FANCI expression: 20.35 FPKM
  FEN1 expression: 31.76 FPKM
  FIGNL1 expression: 2.46 FPKM
  FKBP4 expression: 79.90 FPKM
  GATA4 expression: 0.08 FPKM
  GFRA1 expression: 84.37 FPKM
  GINS1 expression: 11.19 FPKM
  GINS2 expression: 12.84 FPKM
  GJA1 expression: 0.31 FPKM
  GLA expression: 41.63 FPKM
  GP1BB expression: 0.99 FPKM
  GPR68 expression: 0.38 FPKM
  GPRIN1 expression: 4.22 FPKM
  GREB1 expression: 4.76 FPKM
  H2AX expression: 94.16 FPKM
  HBB expression: 2.54 FPKM
  HELLS expression: 3.37 FPKM
  HEY2 expression: 1.93 FPKM
  HMGB2 expression: 125.20 FPKM
  IGFBP4 expression: 56.87 FPKM
  IGSF1 expression: 3.37 FPKM
  ITGA2B expression: 0.44 FPKM
  KIF11 expression: 13.08 FPKM

Reference: paper PMC10426190 (Breast Cancer Research : BCR, 2023)
